In PubChem BioAssay AID1918930 (Molecular Pharmacology Branch, DTP, NCI, 2023) one finds viability, T/C and IC50 data, which are given here for 4 compounds.

The test system of the test is 233499-124-R-J3-PDC complex spheroid viability, % test/control. The test is described as follows: Anticancer human tumor 233499-124-R-J3-PDC patient-derived colon adenocarcinoma cell line growth inhibition. As to conditions: for viability, T/C: stronger effect = lower value. The text has this: Multicellular complex tumor spheroid response to LSD1 Inhibitor Iadademstat in combination with a variety of drugs and investigational agents in selected tumor cell lines
The current study was undertaken to assess response to LSD1 inhibitors in combination with standard-of-care drugs and investigational agents in solid tumor complex spheroid models as well as in the K-562 leukemia. Complex spheroids include a stromal component modeled by human endothelial cells (HUVEC) and fibroblasts modeled by human mesenchymal stem cells (MSCs). The concentration ranges selected for each drug and investigational agent were based upon clinically achievable concentrations if the clinical Cmax of the agent was known.
Compounds. The drugs and investigational agents used in this study are listed on Table 1. All of the agents used, including staurosporine (NSC755774) and gemcitabine (NSC613327), were obtained from the Developmental Therapeutics Program, NCI. FDA-approved anticancer drugs are available from the NCI at http://dtp.nci.nih.gov/branches/dscb/oncology_drugset_explanation.html. Drugs and investigational agents were >95% pure by proton nuclear magnetic resonance (NMR) and liquid chromatography/mass spectrometry (LC/MS). Stock solutions were prepared at 400x in DMSO, stored at -70 degrees C, and diluted in fresh medium prior to their use. The final concentration of DMSO in cell culture wells never exceeded 0.25% (v/v). The FDA-approved anticancer drug set is available from the Developmental Therapeutics Program at https://dtp.cancer.gov/organization/dscb/obtaining/available_plates.htm. All drugs and investigational agents were tested over a range starting from a high concentration at or near the clinical Cmax and decreasing in half-log increments. If the clinical Cmax for an agent had not been determined, the highest concentration tested was 10 microM.
Cell Lines. The patient-derived cancer cell (PDC) lines: 292921-168-R-J2-PDC, K24384-001-R-PDC, and 521955-158-R2-J5-PDC pancreatic carcinomas, 556581-035-R-J1 ovarian carcinoma, 324938-238-R-J1-PDC, 855422-203-R-J1-PDC and 883617-216-R-J1-PDC urothelial bladder carcinomas, 743489-274-T-PDC renal cell carcinoma, 138582-R-J1 Merkel cell tumor, K60290-347-R-J1 and K57222-313-R-J1-PDC glioblastomas, 653999-131-R-J2-PDC, LG0703-F948-PDC, and 349418-098-R-PDC non-small cell lung carcinomas, 885512-296-R-J2-PDC, 171881-019-R-J1-PDC breast carcinomas and 186277-243-T-J2-PDC and 233499-124-R-J2-PDC colon carcinomas were obtained from the NCI Patient-Derived Models Repository (PDMR, https://pdmr.cancer.gov). The established cell lines NCI/ADR-RES (RRID:CVCL_14520 and OVCAR-5 (RRID:CVCL_1628) ovarian carcinomas, 786-O (RRID:CVCL_1051) and A498 (RRID:CVCL_A498) renal cell carcinoma, NCI-H211 (ATCC, cat. CRL-5824; RRID:CVCL_1529), NCI-H196 (ATCC, cat. CRL-5823, RRID:CVCL_1509), SW 1271 (ATCC, cat. CRL-2177, RRID:CVCL_1716) and NCI-H1876 (ATCC, cat. CRL-5902, RRID:CVCL_1503) small cell lung carcinomas, MDA-MB-231 (RRID:CVCL_0062) and MDA-MB-468 (RRID:CVCL_0419)breast carcinomas (10-12). Pooled donor human umbilical vein endothelial cells (HUVEC, Lonza, cat. CC-2519) and human mesenchymal stem cells (hMSC, Lonza, cat. PT-2501) were purchased from Lonza (Walkersville, MD).
Cell Culture. All cells were maintained in an incubator at 37 degrees C and 5% CO2 with 95% humidity. The PDC lines were cultured according to standard operating procedures established by the NCI PDMR (https://pdmr.cancer.gov). Briefly all PDCs were thawed and cultured in Matrigel-coated flasks prepared with a working solution of 1X Ham's F-12 nutrient mix, without supplementation (Invitrogen, Waltham, MA, cat. 11765054), 100 U/mL penicillin-streptomycin (Invitrogen, cat. 15140122), and 2.5% Matrigel (Corning Inc., Corning, NY, cat. 354248) for the first three passages. […]

Setting [1] is: curve of first compound, second compound 0.1 µM.
Setting [2] is: curve of first compound, second compound 0.316 µM.
Setting [3] is: curve of first compound, second compound 1 µM.
Setting [4] is: curve of first compound, second compound 3.16 µM.
[5] abbreviates: curve of first compound, second compound 10 µM.
Where [6] appears, read: second compound 0.1 µM, first compound 0.00949 µM.
The mark [7] stands for this setting: second compound 0.1 µM, first compound 0.03 µM.
[8] abbreviates: second compound 0.1 µM, first compound 0.0949 µM.
Setting [9] is: second compound 0.1 µM, first compound 0.3 µM.
The mark [10] stands for this setting: second compound 0.316 µM, first compound 0.00949 µM.
[11] abbreviates: second compound 0.316 µM, first compound 0.03 µM.
The mark [12] stands for this setting: second compound 0.316 µM, first compound 0.0949 µM.
[13] abbreviates: second compound 0.316 µM, first compound 0.3 µM.
[14] abbreviates: second compound 1 µM, first compound 0.00949 µM.
Setting [15] is: second compound 1 µM, first compound 0.03 µM.
Where [16] appears, read: second compound 1 µM, first compound 0.0949 µM.
Where [17] appears, read: second compound 1 µM, first compound 0.3 µM.
Setting [18] is: second compound 3.16 µM, first compound 0.00949 µM.
[19] abbreviates: second compound 3.16 µM, first compound 0.03 µM.
Setting [20] is: second compound 3.16 µM, first compound 0.0949 µM.
Where [21] appears, read: second compound 3.16 µM, first compound 0.3 µM.
The mark [22] stands for this setting: second compound 10 µM, first compound 0.00949 µM.
[23] abbreviates: second compound 10 µM, first compound 0.03 µM.
Where [24] appears, read: second compound 10 µM, first compound 0.0949 µM.
Setting [25] is: second compound 10 µM, first compound 0.3 µM.

Each structure is given as a SMILES string. Several values for one entry are separate records, joined by “and”; a condition that tells them apart may be missing. Equal entries are not always repeated.
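Note: spheroids exposed to agents for one week before readout.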

As to `O=C(C=Cc1cccc(S(=O)(=O)Nc2ccccc2)c1)NO`, the viability, T/C (usually the ratio of treated to control) (compound 0.00949 µM) is 93.1% and 104%; the viability, T/C (compound 0.03 µM) is 116% and 98.3%; the viability, T/C (compound 0.0949 µM) is 128% and 104%; the viability, T/C (compound 0.3 µM) is 141% and 98.9%; the viability, T/C (compound 0.949 µM) was 26.7% and 9.27%; the viability, T/C (compound 3 µM) was 96.4% and 90.1%. The IC50 (in general, the concentration that gives 50% inhibition) (curve of compound) was 3000 nM and > 3000 nM.

Turning to `CCc1c2c(nc3ccc(O)cc13)-c1cc3c(c(=O)n1C2)COC(=O)[C@]3(O)CC`, the viability, T/C (compound 0.000949 µM) is 91.8% and 92.6%; the viability, T/C (compound 0.003 µM) is 106% and 117%; the viability, T/C (compound 0.00949 µM) is 101% and 94%; the viability, T/C (compound 0.03 µM) was 47.5% and 33.5%; the viability, T/C (compound 0.0949 µM) is 16.6% and 32.4%; the viability, T/C (compound 0.3 µM) was 26.7% and 28.5%. The concentration for half-maximal inhibition (IC50) (curve of compound) is 28.4 nM and 21.8 nM.

On to `O=C(C=Cc1cccc(S(=O)(=O)Nc2ccccc2)c1)NO` + NC1CC1c1ccc(-c2cccc(O)c2)cc1, for which the IC50 by setting is: under setting [1], over 3000 nM; under setting [2], over 3000 nM; under setting [3], over 3000 nM; under setting [4], 908 nM; under setting [5], 759 nM. Also, the viability, T/C under setting [6] was 108%; the viability, T/C under setting [7] was 134%; the viability, T/C under setting [8] is 118%; the viability, T/C under setting [9] was 113%; the viability, T/C (second compound 0.1 µM, first compound 0.949 µM) is 14.4%; the viability, T/C (second compound 0.1 µM, first compound 3 µM) was 89.1%. Moreover, the viability, T/C is, setting by setting: under setting [10], 126%; under setting [11], 112%; under setting [12], 124%; under setting [13], 115%; (second compound 0.316 µM, first compound 0.949 µM) 10.3%; (second compound 0.316 µM, first compound 3 µM) 97%. The viability, T/C is 95.2% under setting [14]; 109% under setting [15]; 113% under setting [16]; 113% under setting [17]; 9.43% (second compound 1 µM, first compound 0.949 µM); 91.8% (second compound 1 µM, first compound 3 µM). Besides, the viability, T/C runs as follows: under setting [18], 86%; under setting [19], 104%; under setting [20], 93.8%; under setting [21], 108%; (second compound 3.16 µM, first compound 0.949 µM) 7.54%; (second compound 3.16 µM, first compound 3 µM) 88.7%. The viability, T/C runs as follows: under setting [22], 86%; under setting [23], 91.9%; under setting [24], 90.9%; under setting [25], 109%; (second compound 10 µM, first compound 0.949 µM) 5%; (second compound 10 µM, first compound 3 µM) 73.7%.

With `Nc1ccn(C2OC(CO)C(O)C2(F)F)c(=O)n1` (centres undefined) + NC1CC1c1ccc(-c2cccc(O)c2)cc1, the IC50 was 87.3 nM under setting [1]; 73.4 nM under setting [2]; 32.8 nM under setting [3]; 55.8 nM under setting [4]; 34.8 nM under setting [5]. Moreover, the viability, T/C runs as follows: (second compound 0.1 µM, first compound 0.000949 µM) 111%; (second compound 0.1 µM, first compound 0.003 µM) 97.9%; under setting [6], 104%; under setting [7], 72.4%; under setting [8], 49.4%; under setting [9], 45.2%. The viability, T/C is, setting by setting: (second compound 0.316 µM, first compound 0.000949 µM) 85.1%; (second compound 0.316 µM, first compound 0.003 µM) 96.1%; under setting [10], 75.3%; under setting [11], 69.9%; under setting [12], 41%; under setting [13], 41.7%. Moreover, the viability, T/C by setting is: (second compound 1 µM, first compound 0.000949 µM) 96.1%; (second compound 1 µM, first compound 0.003 µM) 84.7%; under setting [14], 78.1%; under setting [15], 49.2%; under setting [16], 41.2%; under setting [17], 38.7%. For the same compound, the viability, T/C is 92.3% (second compound 3.16 µM, first compound 0.000949 µM); 95.6% (second compound 3.16 µM, first compound 0.003 µM); 72.7% under setting [18]; 60.1% under setting [19]; 39.1% under setting [20]; 46.2% under setting [21]. For the same compound, the viability, T/C (second compound 10 µM, first compound 0.000949 µM) was 83.5%; the viability, T/C (second compound 10 µM, first compound 0.003 µM) is 69.4%; the viability, T/C under setting [22] was 74.8%; the viability, T/C under setting [23] is 52.5%; the viability, T/C under setting [24] is 32.8%; the viability, T/C under setting [25] was 35.1%.
